Reference: patent publication US5017557A, “Treatment of infertility with somatotrophin releasing factor” (Industria Farmaceutica Serono S.p.A., priority 1987, dated 1991)
Entries after “also recorded” stand apart in the source; their conditions may differ. No end group written: not given here.

Tests used:
[1] = test system: anti-GRF obtained in the rabbit (Amersham) against human GRF-44; details: rabbit anti-serum against human GRF-44 (Amersham); cited from earlier work
spermatozoa = assay: treatment of male infertility: seminal parameters; type: in vivo, human (patients); details: oligospermia or azoospermia; 5 mcg/kg s.c. 3 times a week for three months; controls at 45 days and 3 months
Experimental: Patients suffering spermatogenesis deficiences of various entity with oligospermia or azoospermia, selected according to the criteria of the protocol, were treated for a period of three months with GRF-29 at the dosage of 5 mcg/kg s.c. 3 times a week.
The first control was carried out after 45 days from commencement of therapy, and the second control after 3 months.

[2] = test system: follicle in maturative growth; assay: echographic monitoring of follicle-genesis (volume/diameter of the follicle in maturative growth) in women; type: in vivo, human (women)
Experimental: In the clinical trials reported below, GRF-29 was used in the form of lyophilized ampoules containing 100 or 150 micrograms (mcg) of GRF and 10 milligrams (mg) of mannitol as excipient. The lyophilized substance, dissolved in 2 ml of physiologic saline, was administered by the intravenous route.
In a clinical study carried out in conformity with the present invention women, both with normal follicle-genesis (as control) and follicle-genesisdeficiency were treated.
The study consisted in echographic and hormonal monitoring of follicle-genesis during which the volume of the follicle in maturative growth and the plasma levels of 17-beta estradiol and 17-alpha OH progesterone were recorded.
In the controls with normal follicle-genesis, 2 monitorings of the follicle-genesis were carried out in accordance with the above mentioned procedures: the first verified the basal situation and the second was under administration of GRF-29 at the dosage of 100 or 150 mcg/day i.v. from the 1st to the 7th day of the cycle.
In patients with follicle-genesis deficiency, monitorings of the follicle-genesis were carried out: without any medicinal administration (as control); under administration of GRF-29 at the dosage of 100 or 150 mcg/day i.v. from the 1st to the 7th day of the cycle; under administration of FSH (METRODIN® at the dosage of 75 or 150 I.U./day i.m. for 7 days; under the combined administration of FSH+GRF at the above dosage.

Sertoli cells = assay: GRF binding to isolated Sertoli cells; set-up: species or system rat
Description: Sertoli cells were isolated from the testicles of 14 day old rats, according to the techniques already decribed (A. Fabbri, et al.--Opiate receptors are present in the rat testis: Identification and localization on Sertoli cells. Endocrinology 117: 2544-2546, 1985). Briefly, the procedure consisted in the separation of the tubular compartment from the Leydig cells by means of enzymatic dispersion with collagenase and subsequent treatment of the tubules with trypsin and collagenase. The separated cells were applied to 48 well Costar plates at the concentration of approximately 100,000 cells per well. The cells were allowed to adhere to the bottom of the wells for 24 hours in a metabolic incubator at 34° C., in 95% O2 /5% CO2. The cells were then washed and incubated in TC 199 10 mM TRIS medium in the presence of iodine labelled GRF-44 at the concentration of 10^-11 M for 60 minutes at 4° C. in the presence or absence of 10^-6 M cold (unlabelled) human GRF-44. Then the cells were washed 3 times with PBS+0.5% BSA at 4° C.; the radio-activity bound to the cells was then solubilized with 0.1N NaOH and read in a gammacounter.

[3] = test system: serum levels of HGH, Sm-C, prolactin, LH, FSH; details: intravenous administration, normal subjects during the menstrual cycle; cited from earlier work

Substance	Cross-reactivity [1]	seminal parameters (number of spermatozoa, motility) (spermatozoa)	observation of the cycle (follicular activation, dominance, ovulation, menstrual flow) ([2]; Case 1, normal follicle-genesis, GRF-29 100 mcg/day i.v.)	observation of the cycle (follicular activation, dominance, ovulation, menstrual flow) ([2]; Case 3, patient, GRF-29 150 mcg/day i.v.)	observation of the cycle (follicular activation, dominance, ovulation, menstrual flow) ([2]; Case 4, patient, GRF-29 100 mcg/day i.v.)	observation of the cycle (follicular activation, dominance, ovulation, menstrual flow) ([2]; Case 6, patient, GRF-29 150 mcg/day i.v. day 1-7)	observation of the cycle (follicular activation, dominance, ovulation, menstrual flow) ([2]; Case 7, patient, GRF-29 150 mcg/day i.v. day 1-7)	overall effect on follicle growth and ovulation ([2]; administration during the first phase of the cycle, all cases)	specific binding of GRF to Sertoli cells (Sertoli cells; iodine labelled GRF-44 10^-11 M, 60 minutes at 4° C., with or without 10^-6 M cold human GRF-44)	specific binding of GRF to Sertoli cells (Sertoli cells; recalculated per mg of protein)	effect on serum hormone levels [3]
GRF-29: biologically active fragment of Somatotrophin releasing factor; lyophilized ampoules of 100 or 150 mcg with 10 mg mannitol (YADAIFTNSYRKVLGQLSARKLLQDIMSR; ends and bridges not checked; UniProt P01286 32-60, looked up, fragment)	100%	improvement of the seminal parameters, and especially an increase in the number of spermatozoa and their motility	presence of follicular activation and evidence of a dominant follicle between the 13th and the 14th day of the cycle, with ovulation between the 15th and 16th day	presence of follicular activation, dominance and dehiscence	absence of ovulation but follicle-genesis was activated; also recorded: Menstrual flow occurred spontaneously on the 33rd day	good ovarian activation was observed, followed by the growth of two follicles (within a micropolycistic ovary, as stated above), which presented an involution around the 17th day of the cycle	presence of echographic notes of ovarian activation, but absence of follicular dominance	facilitates follicle growth and anticipates, or even induces, ovulation (dehiscence)			
GRF: Somatotrophin releasing factor; measured as immunoreactivity by RIA, binding done with iodine labelled human GRF-44									2.5 fmoles of peptide/70 mcg of protein	about 40 fmoles/mg of protein	produces an increase in serum levels of HGH and Sm-C but not of prolactin, LH or FSH
